Key:
right atrium = test: Action on extracted guinea pigs' hearts: right atrium sample (heart rate); parameters: species or system Hartley guinea pigs; details: for Heart Rates 10^-4(M): suppression at 10^-4 M; for Heart Rates 10^-5(M): suppression at 10^-5 M
Excerpt: (§1) Stunned by receiving a blow on the heads, Hartley guinea pigs (weighing 300-400 g) were fixed on the back regions to extract their hearts. Each of the extracted hearts was placed in a beaker containing the same Krebs-Henseleit solution as used in Test Example 4 and supplied with 95% O₂-5% CO₂ gases, thereby stripping it of blood deposits, and was then passed into a sample forming glass vessel. This vessel was previously filled with a Krebs-Henseleit solution and the above gaseous mixture continued to be supplied thereto during preparing the sample.
(§2) In order to prepare the sample, the right and left atria were cut out of the ventricular muscle along the atriventricular sulcus from the center of both the right and left auricles.
The thus extracted right atrium was suspended in a Magnus tube with a tension of 0.2 to 0.3 g, said tube supplied with 95% O₂ - 5% CO₂ gases, containing 10 ml of a Krebs-Henseleit solution and maintained at 32±1°C. The contraction of the sample was recorded on a recorder through an FD pickup simultaneously with counting and recording the beat with an instantaneous cardiograph unit.
(§3) The actions of the present and control compounds on the right (counting the heart rate) and left (measuring the systole force) atria are reported below.

left atrium = test: Action on extracted guinea pigs' hearts: left atrium sample (systole force); parameters: species or system Hartley guinea pigs; details: electrically stimulated; for Systole Forces 10^-4(M): suppression at 10^-4 M; for Systole Forces 10^-5(M): suppression at 10^-5 M
Excerpt: as §1, §2
The extracted left atrium was fixed with a micro wire clamp through both the auricles in a Magnus tube supplied with 95% O₂ - 5% CO₂ gases, containing 30 ml of a Krebs-Henseleit solution and maintained at a solution temperature of 32±1°C, and then suspended therein under a checking tension of ca. 0.25 g. While a platinum bipolar electrode attached to the above-mentioned micro wire clamp was in contact with the atrium, stimuli were given to it by 1-Hz, 2-msec. and 10-V rectangular waves derived through an electrical stimulator and an isolator to record the movement of said atrium with an FD pickup connected with it through silk thread.
as §3

platelet aggregation = test: Ex vivo action on inhibiting platelet aggregation after intravenous administration; type: in vivo, rat; details: inhibition of platelet aggregation relative to control; 30.0 mg/kg intravenously, blood gathered five minutes after; inducer collagen
Experimental: Five minutes after the test compound had been intravenously administered to the tail of a rat, blood was gathered from the descending aorta of the rat which was lightly etherized. Added to this blood was citric acid (3.8% sodium citrate) in a volume ratio of 1/10.
The thus treated blood was centrifuged at 1500 rpm for 5 minutes to obtain a supernatant fluid in the form of PRP. The residues were then again centrifuged at 4°C and 3000 rpm for 10 minutes to obtain a supernatant fluid in the form of PPP. For the platelet aggregation test, NAB HEMA TRACER 601 (Model PAT-60 made by Niko Bioscience Co., Ltd.) was used. […] of PRP were put in a PRP cuvette having a stirrer bar with the transmittance set at 0%, while 300 µl of PPP were put in a PPP cuvette with the transmittance set at 100%. After 1-minute preincubation, 20 µl of an aggregation inducer (collagen or ADP) were introduced.
A control group, to which dimethylacetamide and tartaric acid in a ratio of 2/3 were given in a quantity of 1 ml/kg, was treated similarly to the test group. Upon the addition of the aggregation inducer, a maximum transmittance change was read to find a platelet aggregation change in %. […] Table 3 sets out the results, from it is noted that the present compounds have a significant action on inhibiting platelet aggregation.

SMILES	Heart Rates 10^-4(M) (right atrium)	Heart Rates 10^-5(M) (right atrium)	Systole Forces 10^-4(M) (left atrium)	Systole Forces 10^-5(M) (left atrium)	inhibition of collagen-induced platelet aggregation (platelet aggregation) [%]
CC(C)NCC(O)COc1cccc2ccccc12 (stereo not shown) [A, propranolol]	++ (++ indicates 20% or more suppression)	++ (++ indicates 20% or more suppression)	++ (++ indicates 20% or more suppression)	++ (++ indicates 20% or more suppression)	–
CC(=O)Oc1ccccc1C(=O)O [Aspirin]	–	–	–	–	77
CC(C(O)c1ccc(O)cc1)N1CCC(Cc2ccccc2)CC1 (stereo not shown) [B, ifenprodil]	++ (++ indicates 20% or more suppression)	++ (++ indicates 20% or more suppression)	+ (+ 10-20% suppression)	- (- 0% suppression)	–
COc1ccc2c(c1)c(CC(=O)O)c(C)n2C(=O)c1ccc(Cl)cc1 [Indomethacin]	–	–	–	–	49
